Experimental data: US20240101600A1, “FIBROBLAST GROWTH FACTOR RECEPTOR (FGFR)-TARGETING ANTAGONISTIC SHORT PEPTIDE” (WENZHOU MEDICAL UNIVERSITY, priority 2019, published 2024)
Where no end group is shown, it is not given here.

Tests used:
Type in all cases: cell-based
FGFR1 [1] = molecular target: FGFR1 (Homo sapiens, UniProt P11362); assay: Flow cytometry binding of P48 to FGFR1 in SGC-7901 cells; parameters: endogenous in cells; host or cells: Hela229; NCI-H460; SGC-7901; MGC-803
Description: (§1) Human embryonic kidney cells HEK-293, fibroblasts MEF-WT and Balb/c 3T3 were inoculated into 6-well plates, respectively. After growing adherently overnight, the cells were pretreated with P48 for 10 min or with AZD4547/PD173074/SSR for 2 h, and incubated with bFGF for 15 min. […] The experimental procedure was as follows: MEF-WT and MEFKO (FGFR1-FGFR2-FRS2a) cells (1×10^6 cells/ml) were inoculated in a 35 mm petri dish. After being adhered to the wall of petri dish overnight, the cells were washed with PBS; FITC-conjugated P48 (1, 10, 100 and 1000 nM) was added, and the cells were incubated in an incubator for 30 min. The cells were immobilized with 1% paraformaldehyde in the dark and washed with PBS. An expression level of the FITC was measured at a fluorescence channel 1 (FL-1) (530 nm), with an excitation wavelength of 488 nm. Data analysis was conducted using CellQuest software (Becton Dickinson).
Cervical cancer cells Hela229, melanoma B16-F10, lung cancer cells NCI-H460, gastric cancer cells SGC-7901 and MGC-803 were inoculated into 6-well plates, respectively. After growing adherently overnight, the cells were pretreated with P48 for 10 min or with AZD4547/SSR for 2 h, and incubated with bFGF for 15 min or with KGF for 20 min.

EGFR = molecular target: T1, EGFR (Homo sapiens, UniProt P00533, DEL746-750); assay: Western blot of EGFR and ERK1/2 in PC-9 cells under EGF stimulation; details: EGF 10 min
T1 construct: endogenous in cells; host or cells: PC-9

FGFR1 [2] = assay: Flow cytometry binding of FITC-conjugated P48 to MEF-WT and FGFR1-FGFR2-FRS2a knock-out MEF cells; details: FITC-conjugated P48 1, 10, 100, 1000 nM, 30 min
Description: as §1

Hela229 cells = assay: MTT viability, Hela229 cells; details: 48 h with bFGF
Description: (§2) In vitro anti-tumor activity of a short peptide compound P48 Hela229 (1500 cells/100 μl), B16-F10 (1000 cells/100 μl), NCI-H460 (4000 cells/100 μl) and SGC7901 (4000 cells/100 μl) cells were inoculated in 96-well plates. After incubated overnight adherently, the original medium was replaced with a Dulbecco's modified eagle medium (DMEM) containing 0.1% fetal bovine serum (FBS) or a Roswell Park Memorial Institute 1640 (RPMI-1640) medium containing 0.1% FBS, and culture was continued for 24 h. A mixture of P48 and bFGF, or bFGF alone were added into corresponding wells, and incubated for 48 h; an MTT solution (5 mg/mL) prepared by PBS was added to the cells in each well at 37° C., and treated for 4 h. The MTT was removed by aspiration, 150 μL of DMSO was added to each well, shaking was conducted for 10 min, and an optical density (OD) value was quantified with a microplate reader (SpectraMax M2/M2e, Molecular Devices, Sunnyvale, USA) at a wavelength of 490 nm. The percentage of drug growth inhibition rate was calculated by comparing with the bFGF group. […] The experimental procedure was as follows: 10% FBS-containing medium (500 μl) was added to a lower surface of a transwell insertion chamber, the cells together with the drug were inoculated into an upper chamber, and cultured with a serum-free medium (200 μl). […]

SGC-7901 cells = assay: MTT viability, SGC-7901 cells; details: 48 h with bFGF
Description: as §2

Sequence of FGFR1 (Homo sapiens, UniProt P11362) (P11362 22-822): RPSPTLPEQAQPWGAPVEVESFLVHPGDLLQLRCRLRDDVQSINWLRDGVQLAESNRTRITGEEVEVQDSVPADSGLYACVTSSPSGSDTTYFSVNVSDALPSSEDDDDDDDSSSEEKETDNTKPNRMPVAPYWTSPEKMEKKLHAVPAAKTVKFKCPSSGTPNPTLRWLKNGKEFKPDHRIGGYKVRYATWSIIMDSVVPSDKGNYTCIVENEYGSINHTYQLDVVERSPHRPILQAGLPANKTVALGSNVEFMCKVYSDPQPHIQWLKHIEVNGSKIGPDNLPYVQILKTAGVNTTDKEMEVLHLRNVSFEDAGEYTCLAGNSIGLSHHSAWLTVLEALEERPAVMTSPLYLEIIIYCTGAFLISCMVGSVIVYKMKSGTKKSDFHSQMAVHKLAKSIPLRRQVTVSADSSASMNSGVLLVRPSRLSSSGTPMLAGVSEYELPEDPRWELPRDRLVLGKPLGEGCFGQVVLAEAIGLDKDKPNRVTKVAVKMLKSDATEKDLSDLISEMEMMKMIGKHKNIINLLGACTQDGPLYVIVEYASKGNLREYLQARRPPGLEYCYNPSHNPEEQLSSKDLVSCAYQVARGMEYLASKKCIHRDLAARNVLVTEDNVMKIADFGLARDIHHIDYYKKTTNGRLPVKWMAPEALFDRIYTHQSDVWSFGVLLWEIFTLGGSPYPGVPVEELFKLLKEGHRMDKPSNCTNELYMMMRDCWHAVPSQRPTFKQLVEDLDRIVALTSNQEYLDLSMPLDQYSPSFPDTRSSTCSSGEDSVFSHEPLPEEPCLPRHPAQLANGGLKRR

SPPRYPGGGS-NH2 [P48, Ser-Pro-Pro-Arg-Tyr-Pro-Gly-Gly-Gly-Ser-NH2]
binding to the FGFR1 site of the cell membrane surface (FGFR1 [1]): desirable binding effect | effect on EGF stimulation (phosphorylated EGFR and ERK1/2) (EGFR): has no effect | binding to wild-type versus FGFR1-FGFR2-FRS2a knock-out MEF cells (FGFR1 [2]): only has a binding effect on the wild-type MEF cells | inhibition of cancer cell viability (Hela229 cells): can significantly inhibit the viability of cancer cells | inhibition of cancer cell viability (SGC-7901 cells): can significantly inhibit the viability of cancer cells
